# Biological target: T1, choline kinase beta (CKβ) (Homo sapiens, UniProt Q9Y259)
# T1 construct: gene CHKB; recombinant CKβ, in vitro phosphorylated by PKA (Ser39/Ser40)
# Experiment: PK-LDH coupled enzyme assay, IC50 at […] choline converted to Ki
# Format: biochemical
# T1 sequence (Q9Y259 2-395): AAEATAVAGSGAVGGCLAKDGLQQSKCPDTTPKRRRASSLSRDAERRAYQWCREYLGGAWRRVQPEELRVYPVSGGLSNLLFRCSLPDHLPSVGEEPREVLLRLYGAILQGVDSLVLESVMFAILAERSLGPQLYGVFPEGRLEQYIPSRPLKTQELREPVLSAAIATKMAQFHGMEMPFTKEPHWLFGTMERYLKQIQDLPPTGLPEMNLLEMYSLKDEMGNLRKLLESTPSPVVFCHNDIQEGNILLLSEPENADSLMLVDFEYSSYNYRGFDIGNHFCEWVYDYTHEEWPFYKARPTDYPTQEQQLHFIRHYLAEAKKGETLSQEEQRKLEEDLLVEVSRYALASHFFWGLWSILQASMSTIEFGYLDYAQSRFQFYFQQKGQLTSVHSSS
smiles,measurement,value
"C[N+]1(C)CCOC(O)(c2ccc(-c3ccc(C4(O)C[N+](C)(C)CCO4)cc3)cc2)C1 (stereo not shown) [HC-3, Hemicholinium-3]",Ki,4.7 µM

# — article PMC4858151, “Phosphorylation of Human Choline Kinase Beta by Protein Kinase A: Its Impact on Activity and Inhibition” (PLoS ONE, 2016)
